# Measured values reported in ChEMBL document CHEMBL4706474, “Tetrahydro-2-naphthyl and 2-Indanyl Triazolopyrimidines Targeting Plasmodium falciparum Dihydroorotate Dehydrogenase Display Potent and Selective Antimalarial Activity” (J Med Chem, 2016).
# What was measured:
# [1] = molecular target: Dihydroorotate dehydrogenase (quinone), mitochondrial (Homo sapiens, UniProt Q02127); test: Inhibition of N-terminal His6-tagged human DHODH expressed in Escherichia coli BL21 using L-DHO as substrate and CoQ as co-substrate by DCIP dye based spectrophotometric assay
# Chain of Dihydroorotate dehydrogenase (quinone), mitochondrial (Q02127 whole entry): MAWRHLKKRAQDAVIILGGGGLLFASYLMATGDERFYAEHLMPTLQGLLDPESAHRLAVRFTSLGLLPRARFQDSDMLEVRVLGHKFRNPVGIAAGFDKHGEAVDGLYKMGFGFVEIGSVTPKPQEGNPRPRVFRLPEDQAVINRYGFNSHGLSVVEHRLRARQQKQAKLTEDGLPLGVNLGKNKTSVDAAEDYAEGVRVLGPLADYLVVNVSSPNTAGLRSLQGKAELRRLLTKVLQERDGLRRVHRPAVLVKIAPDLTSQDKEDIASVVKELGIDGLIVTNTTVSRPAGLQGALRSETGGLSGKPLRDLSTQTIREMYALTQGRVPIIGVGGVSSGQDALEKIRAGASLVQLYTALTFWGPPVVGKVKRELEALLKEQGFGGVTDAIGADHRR
# [2] = Lipophilicity, logD of the compound at pH 7.4; type: physicochemical; settings: buffer
# [3] = Kinetic solubility of compound in phosphate buffer at pH 6.5 measured after 30 mins by HPLC-UV based analysis; type: physicochemical; settings: for solubility kinetic at 0.5 h: phosphate buffer, pH 6.5, read-out: Kinetic_solubility
# [4] = Intrinsic clearance in human pooled liver microsomes assessed per mg protein at 1 uM by LC-MS analysis; type: ADME, Microsome; settings: microsomes, 1 µM
# [5] = Intrinsic clearance in rat liver microsomes assessed per mg protein at 1 uM by LC-MS analysis; type: ADME, Microsome; settings: microsomes, 1 µM
# [6] = Intrinsic clearance in mouse liver microsomes at 1 uM by LC-MS analysis; type: ADME, Microsome
# [7] = Inhibition of N-terminal His6-tagged Plasmodium falciparum DHODH expressed in Escherichia coli BL21 using L-DHO as substrate and CoQ as co-substrate by DCIP dye based spectrophotometric assay
# [8] = Inhibition of N-terminal His6-tagged Plasmodium vivax DHODH expressed in Escherichia coli BL21 using L-DHO as substrate and CoQ as co-substrate by DCIP dye based spectrophotometric assay
# Plasmodium falciparum [9] = test: Antiplasmodial activity against Plasmodium falciparum 3D7 infected in RBC assessed as reduction in parasitemia incubated for 72 hrs by SYBR green dye-based assay; type: functional, organism-based
# Plasmodium falciparum [10] = test: Antiplasmodial activity against Plasmodium falciparum 3D7 infected in po dosed NSG mouse assessed as reduction in parasitemia administered twice daily for 4 consecutive days starting from day 3 post-infection and measured 24 hrs post last dose by flow cytometric analysis; type: functional; settings: 3D7, po, 96 h, time 4 day
# Plasmodium falciparum [11] = test: Antiplasmodial activity against Plasmodium falciparum 3D7 infected in po dosed NSG mouse assessed as blood AUC level require to show 90% reduction in parasitemia administered once daily for 4 consecutive days starting from day 3 post-infection and measured 24 hrs post last dose by flow cytometric analysis; type: functional, organism-based; settings: time 4.0 day
# Plasmodium falciparum [12] = test: Antiplasmodial activity against Plasmodium falciparum 3D7 infected in NSG mouse assessed as blood AUC level require to show 90% reduction in parasitemia administered orally on day 3 post-infection QD for 4 days and measured after 24 hrs post dose by LC-MS/MS analysis; type: functional, organism-based; settings: time 4.0 day
# [13] = Plasmodium falciparum, 3D7, Erythrocyte, 72 h
Structure (SMILES),IC50 [1] [µM],logD [2],solubility kinetic at 0.5 h [3] [µg/mL],microsomal intrinsic clearance [4] [µL/min],Intrinsic clearance in rat liver microsomes (uL/min/mg protein) [5] [µL/min],intrinsic clearance [6] [µL/min],IC50 [7] [µM],IC50 [8] [µM],EC50 (Plasmodium falciparum [9]; [13]) [µM],EC50 (Plasmodium falciparum [9]; rbc) [µM],further results
Cc1cc(NC2CCc3cc(F)ccc3C2)n2nc(C(C)(F)F)nc2n1 (centres undefined),> 100,3.5,6.3,14,39,122,–,–,–,–,–
Cc1cc(NC2Cc3c(F)ccc(F)c3C2)n2nc(C(C)(F)F)nc2n1,> 100,3.2,6.3,33,1013,1500,0.065,0.15,0.046,–,–
Cc1cc(NC2CCc3ccccc3C2)n2nc(C(F)(F)F)nc2n1 (centres undefined),> 100,–,–,–,–,–,0.17,–,0.021,–,–
Cc1cc(NC2Cc3cccc(F)c3C2)n2nc(C(C)(F)F)nc2n1 (centres undefined),> 100,3.3,12.5,11,72,76,0.052,0.3,0.064,–,–
COc1ccc2c(c1)CC(Nc1cc(C)nc3nc(C(C)(F)F)nn13)CC2 (stereo in doubt; 17),–,–,–,–,–,–,1,–,–,0.64,–
Cc1cc(NC2Cc3cc(Cl)c(Cl)cc3C2)n2nc(C(C)(F)F)nc2n1,–,–,–,–,–,–,0.14,–,0.58,–,–
Cc1cc(NC2Cc3cccc(C(F)(F)F)c3C2)n2nc(C(C)(F)F)nc2n1 (centres undefined),> 100,3.7,6.3,30,61,119,0.066,0.28,0.0043,–,–
Cc1cc(NC2CCc3cc(F)c(F)cc3C2)n2nc(C(C)(F)F)nc2n1 (stereo in doubt; 19),–,–,–,11,24,59,0.06,0.071,–,0.022,–
Cc1cc(NC2CCc3cc(Br)ccc3C2)n2nc(C(C)(F)F)nc2n1 (stereo in doubt; 12),–,–,–,< 7,–,40,0.79,2.1,–,0.14,"Kinetic_solubility ([3]; buffer, pH 6.5, 0.5 h): 3.1 µg/mL"
Cc1cc(NC2Cc3ccc(S(C)(=O)=O)cc3C2)n2nc(C(C)(F)F)nc2n1 (centres undefined),–,–,–,–,–,–,4,–,6.5,–,–
Cc1cc(NC2Cc3ccc(S(=O)(=O)N(C)C)cc3C2)n2nc(C(C)(F)F)nc2n1 (centres undefined),–,–,–,–,–,–,8,–,–,–,–
Cc1cc(NC2CCc3ccccc3C2)n2nc(C(C)(F)F)nc2n1 (centres undefined),–,–,–,–,–,–,0.021,0.035,0.0028,–,–
Cc1cc(NC2Cc3ccccc3C2)n2nc(C(C)(F)F)nc2n1,> 100,3.1,25,24,245,1004,0.048,–,0.036,–,–
Cc1cc(NC2Cc3ccc(Cl)cc3C2)n2nc(C(C)(F)F)nc2n1 (centres undefined),–,3.5,6.3,10,54,43,0.085,–,0.12,–,–
Cc1cc(NC2CCc3ccc(Cl)cc3C2)n2nc(C(F)(F)F)nc2n1 (stereo in doubt; 24),–,4.1,1.6,9,–,24,0.015,–,–,0.033,–
Cc1cc(NC2CCc3cc(F)c(C(F)(F)F)cc3C2)n2nc(C(C)(F)F)nc2n1 (centres undefined),> 100,4,3.1,< 7,13,17,0.089,0.39,0.097,–,–
Cc1cc(NC2Cc3c(C)ccc(C)c3C2)n2nc(C(C)(F)F)nc2n1,> 100,3.8,6.3,168,178,1000,0.014,0.024,0.00039,–,–
Cc1cc(NC2CCc3cc(F)ccc3C2)n2nc(C(F)(F)F)nc2n1 (centres undefined),–,–,–,–,–,–,0.077,0.28,0.066,–,–
COc1ccc2c(c1)CCC(Nc1cc(C)nc3nc(C(C)(F)F)nn13)C2 (centres undefined),> 100,–,–,–,–,–,0.14,0.22,0.017,–,–
COc1ccc2c(c1)CC(Nc1cc(C)nc3nc(C(C)(F)F)nn13)CC2 (stereo in doubt; 16),–,3.3,12.5,18,19,25,0.021,0.13,–,0.025,–
Cc1cc(NC2CCc3cc(Cl)ccc3C2)n2nc(C(C)(F)F)nc2n1 (stereo in doubt; 8),–,–,–,–,–,–,1.34,–,–,0.42,–
Cc1cc(NC2CCc3ccc(Br)cc3C2)n2nc(C(C)(F)F)nc2n1 (stereo in doubt; 14),–,–,–,–,–,–,0.64,–,–,1.4,–
Cc1cc(N[C@@H]2CCc3ccc(Cl)cc3C2)n2nc(C(C)(F)F)nc2n1,> 100,–,–,–,–,–,0.79,–,2.8,–,–
Cc1cc(NC2CCc3ccc(Cl)cc3C2)n2nc(C(F)(F)F)nc2n1 (stereo in doubt; 25),–,–,–,–,–,–,1.1,–,–,1.5,–
Cc1cc(NC2Cc3ccc(Br)cc3C2)n2nc(C(C)(F)F)nc2n1 (centres undefined),–,–,–,–,–,–,0.11,–,0.59,–,–
CCN(CC)CCCC(C)Nc1ccnc2cc(Cl)ccc12 (centres undefined) [CHLOROQUINE],–,–,–,–,–,–,–,–,–,–,ED90 (Plasmodium falciparum [10]): 4.3 mg/kg; AUCED90 (Plasmodium falciparum [11]): 3.1 µM.hr/day
Cc1cc(NC2Cc3cc(F)c(F)cc3C2)n2nc(C(F)(F)F)nc2n1,–,–,–,–,–,–,0.12,–,0.15,–,–
Cc1cc(NC2CCc3cc(Cl)ccc3C2)n2nc(C(C)(F)F)nc2n1 (stereo in doubt),–,–,–,–,–,–,–,–,–,–,AUCED90 (Plasmodium falciparum [12]): > 23 µM.hr/day
Cc1cc(NC2CCc3cc(F)c(F)cc3C2)n2nc(C(C)(F)F)nc2n1 (stereo in doubt; 18),–,–,–,–,–,–,2.3,–,–,> 2.5,–
Cc1cc(NC2CCc3cc(C(F)(F)F)c(F)cc3C2)n2nc(C(C)(F)F)nc2n1 (centres undefined),> 100,4.1,1.6,< 7,< 7,< 7,0.087,0.82,3.3,–,–
